Reference: patent publication US12616713B2, “Methods for enhancing vascular density” (priority 2016, dated 2026)
Entries after “also recorded” stand apart in the source; their conditions may differ.

Assays:
[1] = test system: MLECs isolated from WT and ESKO mice; assay: Transwell migration assay, MLECs; format: cell-based, mouse; conditions: WT versus ESKO MLECs, C2C12 CM, NMN 0.5 mM
C57BL/6J mice [2] = assay: TUNEL and CD31 co-staining of quadriceps capillaries; format: in vivo, mouse; conditions: aged quadriceps tissue, four weeks treatment; untreated 42%
Procedure: Freshly isolated whole quadriceps and gastrocnemius muscle samples were mounted in OCT compound (Tissue-Tek), placed in an isopentane bath and slowly cooled in liquid nitrogen. Transverse sections at 20 μm-thickness were sectioned on a cryostat (Leica). The sections were fixed in pre-cooled acetone (−20° C.) for 10 min and washed with PBS. Slides were then blocked in normal goat serum and 5% Blocking Reagent (PerkinElmer) in PBST (PBS with 0.1% Triton-X) for 1 h at room temperature, and then incubated with anti-CD31 (ab56299, Abcam) and anti-Laminin (L9393, Sigma), GFP (ab6556, Abcam) or SIRT1 (HPA006295, Sigma) antibodies diluted in blocking buffer overnight at 4° C. Slides were washed with PBST and then incubated with anti-rat Alexa Fluor 488-conjugated (Life Technologies) and anti-rabbit Alexa Fluor 594-conjugated (Life Technologies) antibodies diluted to 1:500 in blocking buffer for 2 h at room temperature. Slides were washed again with PBST and mounted with Fluoroshield with DAPI mounting medium (Sigma). Images were acquired using a confocal fluorescence microscope (Nikon A1). Quantification of capillaries and capillary density were performed using ImageJ software. TUNEL staining was performed in muscle sections using in situ BrdU-Red DNA fragmentation (TUNEL) assay kit (Abcam) as per manufacturer's protocol.

HUVECs [3] = assay: Cell proliferation assay, HUVECs; format: cell-based, human; conditions: NMN 500 μM, 48 h, complete growth medium
Procedure: ECs (0.1×10^5 cells) were seeded in a 48-well plate and incubated with PBS (vehicle) or NMN (500 μM) in complete growth medium for 48 h. At the end of the incubation time, the cells were harvested and resuspended in Opti-MEM medium. Cell number was determined using flow cytometry (FACSCanto II Analyzer, BD Biosciences, USA).

HUVECs [4] = assay: VEGF-mediated transwell migration assay, HUVECs; format: cell-based, human; conditions: NMN 500 μM versus PBS
C57BL/6J mice [5] = assay: Skeletal muscle capillaries by CD31/laminin immunofluorescence in old mice; format: in vivo, mouse; conditions: NMN 400 mg/kg/day, two months
Text: SIRT1-iKO, SIRT1-Tg and SIRT1^STOP mice were described previously (Firestein et al., 2008, PLoS One 3, e2020; Price et al., 2012, Cell Metab 15, 675-690). Tie2Cre and Sirt1^flox/flox mice were purchased from Jackson Laboratory (Bar Harbor, ME). MCK-PGC-1α and MyogCre mice were gifts from Dr. Bruce Spiegelman (Dana Farber Cancer Center, MA) and Dr. Eric N. Olson (UT Southwestern, Dallas, TX), respectively. mT-STOP^flox/flox, Gfp mouse was generated in house by E.O.W., which consists of an allele driven by ubiquitous actin B promoter, which has loxP sites flanking membrane-targeted tandem dimer Tomato (mT) and transcriptional STOP cassette, followed by a GFP coding sequence. […] SIRT1-iKO mice were fed tamoxifen (360 mg/kg) diet for five weeks to elicit whole-body SIRT1 exon 4 excision as described previously (Price et al., 2012). […] NMN stock was changed twice per week and […]4137 was supplemented daily. Axitinib (30 mg/kg/day) was given via food and changed daily. Freshly isolated whole quadriceps and gastrocnemius muscle samples were mounted in OCT compound (Tissue-Tek), placed in an isopentane bath and slowly cooled in liquid nitrogen. Transverse sections at 20 μm-thickness were sectioned on a cryostat (Leica). The sections were fixed in pre-cooled acetone (-20° C.) for 10 min and washed with PBS. […] Slides were washed with PBST and then incubated with anti-rat Alexa Fluor 488-conjugated (Life Technologies) and anti-rabbit Alexa Fluor 594-conjugated (Life Technologies) antibodies diluted to 1:500 in blocking buffer for 2 h at room temperature. Slides were washed again with PBST and mounted with Fluoroshield with DAPI mounting medium (Sigma). Images were acquired using a confocal fluorescence microscope (Nikon A1). Quantification of capillaries and capillary density were performed using ImageJ software. TUNEL staining was performed in muscle sections using in situ BrdU-Red DNA fragmentation (TUNEL) assay kit (Abcam) as per manufacturer's protocol.

HUVECs [6] = assay: Cell apoptosis assay, HUVECs exposed to H2O2; format: cell-based, human
Procedure: HUVECs were treated with PBS (vehicle), NaHS (100 μM), NMN (500 μM) or NMN+NaHS for 6 h, followed by exposure to H2O2 (600 μM) for another 4 h. After treatments, the number of apoptotic cells was determined using Annexin V-FITC apoptosis detection kit (eBioscience) as per manufacturer's instructions. Briefly, cells were collected by trypsinization and centrifugation at 1500 rpm for 5 minutes, followed by washing cell pellet twice with cold PBS and resuspending cell pellet in 1× Annexin-binding buffer. Then, 5 μL of Annexin-V FITC was added to 195 μL of cell suspension and incubated at room temperature for 15 min in the dark. After the incubation, cells were centrifuged, resuspended in 195 μL of 1× Annexin-binding buffer and then 5 μL of propidium iodide working solution was added. After mixing gently, the fluorescence intensity was detected with a flow cytometry (FACSCanto II Analyzer, BD Biosciences) at emission at 530 nm and 575 nm and excitation at 488 nm. […]

NC(=O)c1ccc[n+]([C@@H]2O[C@H](COP(=O)([O-])O)[C@@H](O)[C@H]2O)c1 [NMN, nicotinamide mononucleotide]
ability of NMN to stimulate cell migration, dependence on SIRT1 [1]: SIRT1-dependent | number of capillaries with apoptotic cells (C57BL/6J mice [2]): 17% | cell growth (relative cell number) (HUVECs [3]): promoted cell growth; also recorded: induced proliferation | motility in response to VEGF (migrated cells) (HUVECs [4]): promoted | gastrocnemius capillarity (C57BL/6J mice [5]; 20-month old WT mice): increased capillaries; also recorded: increased gastrocnemius capillarity | gastrocnemius capillarity (C57BL/6J mice [5]; 20-month old tamoxifen-treated SIRT1-iKO mice): not in SIRT1-iKO mice; also recorded: no change | number of capillaries and capillary density (quadriceps, gastrocnemius) (C57BL/6J mice [5]; old mice): restored | percentage of cells undergoing early apoptosis (HUVECs [6]; NMN 500 μM 6 h, then H2O2 600 μM 4 h): reduced the percentage of cells undergoing early apoptosis | reduction of apoptosis in response to H2O2 (HUVECs [6]; NaHS 0.1 mM and/or NMN 0.5 mM 6 hrs, then H2O2 600 μM 4 hrs): 13%
